# Reference: patent publication US9290496B2, “Purine derivatives” (PFIZER INC., priority 2013, dated 2016)
# Read-outs that look alike come from different tables or passages of the source.
# Legend:
# Format in all cases: cell-based
# [1] = target: T1, EGFR L858R (NCI-H3255) (Homo sapiens, UniProt P00533, L858R); assay: pEGFR Y1068 ELISA assay, NCI-H3255 cells
# T1 construct: detects endogenous levels of phospho-EGF Receptor (Tyr1068) protein; host or cells: NCI-H3255
# Experimental: (§1) The PathScan® Phospho-EGF Receptor (Tyr1068) Sandwich ELISA Kit is a solid phase sandwich enzyme-linked immunosorbent assay (ELISA) that detects endogenous levels of phospho-EGF Receptor (Tyr1068) protein. […] NCI-H3255 cells were licensed from NCI. […] All cells were cultured according to ATCC recommendations. A549, NCI-H1975, PC9, and NCI-H3255 cells were grown in RPMI media (Invitrogen, Carlsbad, Calif.) supplemented with 10% FBS (Sigma, St Louis, Mo.), and with 1% Penn/Strep (Invitrogen).
# (§2) Each compound was prepared as a DMSO stock solution (10 mM). Compounds were tested in duplicate on each plate, with an 11-point serial dilution curve (1:3 dilution). Compound treatment (50 μL) was added from the compound dilution plate to the cell plate. […] Plates were then incubated for 2 hr at 37° C., 5% CO2. […] The wash was then flicked off and ice-cold lysis buffer was added to the cells (50 μL/well). The plate was shaken for 20-30 min at 4° C. to completely lyse the cells. Sample diluent (50 μL/well) was added to the ELISA plate, and the lysate (50 μL) was diluted into the sample diluent in each well of the ELISA plate. Plates were sealed and incubated overnight at 4° C. with shaking. The next day, wells were washed four times with 1× Wash Buffer; plates were taped on lint-free paper after the final wash prior to adding Add Detection Antibody (green, 100 μL/well) to each well and incubating for 1 hr at 37° C. After incubation, wells were washed as described. HRP-Linked secondary antibody (red, 100 μL/well) was added to each well and incubated for 30 min at 37° C. After incubation, the wells were washed as described. TMB Substrate (100 μL/well) was added to each well and the plate incubated for 10 min at 37° C. or 30 min at rt maximum. Stop Solution (100 μL/well) was added to each well at the end of the incubation and plates were shaken gently for a few seconds. […] Data were analyzed using a four-parameter fit in Microsoft Excel.
# [2] = target: T2, EGFR del/T790M (PC9-DRH) (Homo sapiens, UniProt P00533, DEL746-750/T790M); assay: pEGFR Y1068 ELISA assay, PC9-DRH cells; details: inhibition of phosphorylation of EGFR at Tyr1068; PC9-DRH cells (dacomitinib resistant); 2 hr compound incubation
# T2 construct: detects endogenous levels of phospho-EGF Receptor (Tyr1068) protein; endogenous in cells; host or cells: PC9-DRH (dacomitinib-resistant derivative of PC9, generated in house)
# Experimental: as §1, §2
# [3] = target: T3, EGFR L858R+T790M, endogenous (NCI-H1975) (Homo sapiens, UniProt P00533, L858R/T790M); assay: pEGFR Y1068 ELISA assay, NCI-H1975 cells; details: inhibition of phosphorylation of EGFR at Tyr1068; NCI-H1975 NSCLC cells; 2 hr compound incubation
# T3 construct: NCI-H1975 (EGFR L858R+T790M, endogenous); host or cells: NCI-H1975
# T3 sequence (P00533 25-1210 T790M/L858R): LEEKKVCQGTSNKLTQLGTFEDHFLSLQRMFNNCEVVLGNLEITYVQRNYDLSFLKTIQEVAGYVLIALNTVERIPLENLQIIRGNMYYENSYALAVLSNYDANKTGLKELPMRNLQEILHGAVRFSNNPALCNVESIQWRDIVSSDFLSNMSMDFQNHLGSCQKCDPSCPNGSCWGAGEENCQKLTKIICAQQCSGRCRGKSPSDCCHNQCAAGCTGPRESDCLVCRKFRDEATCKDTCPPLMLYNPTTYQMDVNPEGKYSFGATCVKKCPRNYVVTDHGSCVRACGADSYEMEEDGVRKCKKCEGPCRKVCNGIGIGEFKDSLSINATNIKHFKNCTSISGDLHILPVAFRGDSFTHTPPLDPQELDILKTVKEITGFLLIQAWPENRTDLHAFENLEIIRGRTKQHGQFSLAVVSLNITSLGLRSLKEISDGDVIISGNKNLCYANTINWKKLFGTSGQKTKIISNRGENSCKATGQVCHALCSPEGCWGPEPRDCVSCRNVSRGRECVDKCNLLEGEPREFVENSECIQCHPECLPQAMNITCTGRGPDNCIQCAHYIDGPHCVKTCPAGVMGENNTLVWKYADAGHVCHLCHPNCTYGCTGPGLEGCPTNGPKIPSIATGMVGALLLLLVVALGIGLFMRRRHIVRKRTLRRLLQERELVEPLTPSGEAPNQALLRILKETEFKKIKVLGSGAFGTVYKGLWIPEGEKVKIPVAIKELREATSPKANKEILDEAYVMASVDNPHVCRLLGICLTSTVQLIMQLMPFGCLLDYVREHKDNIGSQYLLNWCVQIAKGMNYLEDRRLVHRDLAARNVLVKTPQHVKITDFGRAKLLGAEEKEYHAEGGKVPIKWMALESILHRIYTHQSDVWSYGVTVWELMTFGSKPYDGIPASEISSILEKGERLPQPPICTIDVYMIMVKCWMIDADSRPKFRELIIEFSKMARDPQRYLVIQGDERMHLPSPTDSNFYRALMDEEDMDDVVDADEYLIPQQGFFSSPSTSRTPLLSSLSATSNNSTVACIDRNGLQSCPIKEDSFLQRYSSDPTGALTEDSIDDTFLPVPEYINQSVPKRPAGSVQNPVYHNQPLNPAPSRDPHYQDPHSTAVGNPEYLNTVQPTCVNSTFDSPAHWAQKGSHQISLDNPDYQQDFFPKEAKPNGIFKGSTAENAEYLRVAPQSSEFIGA
# Experimental: Phosphorylation of EGFR at Y1068 was measured by PathScan® Phospho-EGF Receptor (Try1068) Sandwich ELISA kit (#7240, Cell Signaling Technology®, Danvers, Mass.). The PathScan® Phospho-EGF Receptor (Tyr1068) Sandwich ELISA Kit is a solid phase sandwich enzyme-linked immunosorbent assay (ELISA) that detects endogenous levels of phospho-EGF Receptor (Tyr1068) protein. […] All cells were cultured according to ATCC recommendations. A549, NCI-H1975, PC9, and NCI-H3255 cells were grown in RPMI media (Invitrogen, Carlsbad, Calif.) supplemented with 10% FBS (Sigma, St Louis, Mo.), and with 1% Penn/Strep (Invitrogen). PC9-DRH cells were grown in RPMI with 10% FBS and 1 μM dacomitinib.
# Cells were plated at 40,000/well in complete culture media (50 μL/well) on the bottom of clear tissue culture treated microtiter plates (#3595, Corning Inc, Corning, N.Y.) and allowed to adhere overnight at 37° C., 5% CO2. The following day, compound dilution plates were prepared in 96 well clear V-bottom 0.5 mL polypropylene block plates (#3956, Corning, Inc). Each compound was prepared as a DMSO stock solution (10 mM). Compounds were tested in duplicate on each plate, with an 11-point serial dilution curve (1:3 dilution). Compound treatment (50 μL) was added from the compound dilution plate to the cell plate. […] Plates were then incubated for 2 hr at 37° C., 5% CO2. For A549 (EGFR wildtype) assay, cells were plated in full-serum (10%) media for 24 hr prior to compound treatment; cells were treated in full serum media as described and then stimulated for 10 min with EGF (40 ng/mL/starvation media, Invitrogen). Immediately prior to the end of the incubation, ice-cold lysis buffer was prepared (1× Cell Lysis Buffer (#9803, Cell Signaling Technology), 1 mM sodium orthovanadate (Na3VO4, #96508, Sigma), 1 mM phenylmethanesulfonyl fluoride (PMSF, 52332, CalBiochem/EMD Chemicals), complete Mini EDTA-free Protease Inhibitor Cocktail Tablet (1 tablet/10 mL, #11836170001, Roche, Indianapolis, Ind.), and PhosSTOP Phosphatase Inhibitor Cocktail Tablet (1 tablet/10 mL, #04906837001, Roche) in pure water. At the end of 2 hr, media was flicked off and cells were washed once with ice-cold 1 mM Na3VO4 in PBS (100 μL/well, Invitrogen). The wash was then flicked off and ice-cold lysis buffer was added to the cells (50 μL/well). The plate was shaken for 20-30 min at 4° C. to completely lyse the cells. Sample diluent (50 μL/well) was added to the ELISA plate, and the lysate (50 μL) was diluted into the sample diluent in each well of the ELISA plate. Plates were sealed and incubated overnight at 4° C. with shaking. The next day, wells were washed four times with 1× Wash Buffer; plates were taped on lint-free paper after the final wash prior to adding Add Detection Antibody (green, 100 μL/well) to each well and incubating for 1 hr at 37° C. After incubation, wells were washed as described. HRP-Linked secondary antibody (red, 100 μL/well) was added to each well and incubated for 30 min at 37° C. After incubation, the wells were washed as described. TMB Substrate (100 μL/well) was added to each well and the plate incubated for 10 min at 37° C. or 30 min at rt maximum. Stop Solution (100 μL/well) was added to each well at the end of the incubation and plates were shaken gently for a few seconds. Absorbance was read at 450 nm within 30 min after addition of Stop Solution on a PerkinElmer EnVision Excite Multilabel Reader Method for Absorbance or on a Molecular Devices SpectraMax^384 Reader for absorbance. Data were analyzed using a four-parameter fit in Microsoft Excel.
# [4] = target: T4, EGFR wildtype, endogenous (A549) (Homo sapiens, UniProt P00533); assay: pEGFR Y1068 ELISA assay, A549 cells; details: inhibition of phosphorylation of EGFR at Tyr1068; A549 NSCLC cells; 2 hr compound incubation, then stimulated 10 min with EGF (40 ng/mL)
# T4 construct: A549 (EGFR wildtype, endogenous); host or cells: A549 (stimulated with EGF)
# T4 sequence (P00533 25-1210): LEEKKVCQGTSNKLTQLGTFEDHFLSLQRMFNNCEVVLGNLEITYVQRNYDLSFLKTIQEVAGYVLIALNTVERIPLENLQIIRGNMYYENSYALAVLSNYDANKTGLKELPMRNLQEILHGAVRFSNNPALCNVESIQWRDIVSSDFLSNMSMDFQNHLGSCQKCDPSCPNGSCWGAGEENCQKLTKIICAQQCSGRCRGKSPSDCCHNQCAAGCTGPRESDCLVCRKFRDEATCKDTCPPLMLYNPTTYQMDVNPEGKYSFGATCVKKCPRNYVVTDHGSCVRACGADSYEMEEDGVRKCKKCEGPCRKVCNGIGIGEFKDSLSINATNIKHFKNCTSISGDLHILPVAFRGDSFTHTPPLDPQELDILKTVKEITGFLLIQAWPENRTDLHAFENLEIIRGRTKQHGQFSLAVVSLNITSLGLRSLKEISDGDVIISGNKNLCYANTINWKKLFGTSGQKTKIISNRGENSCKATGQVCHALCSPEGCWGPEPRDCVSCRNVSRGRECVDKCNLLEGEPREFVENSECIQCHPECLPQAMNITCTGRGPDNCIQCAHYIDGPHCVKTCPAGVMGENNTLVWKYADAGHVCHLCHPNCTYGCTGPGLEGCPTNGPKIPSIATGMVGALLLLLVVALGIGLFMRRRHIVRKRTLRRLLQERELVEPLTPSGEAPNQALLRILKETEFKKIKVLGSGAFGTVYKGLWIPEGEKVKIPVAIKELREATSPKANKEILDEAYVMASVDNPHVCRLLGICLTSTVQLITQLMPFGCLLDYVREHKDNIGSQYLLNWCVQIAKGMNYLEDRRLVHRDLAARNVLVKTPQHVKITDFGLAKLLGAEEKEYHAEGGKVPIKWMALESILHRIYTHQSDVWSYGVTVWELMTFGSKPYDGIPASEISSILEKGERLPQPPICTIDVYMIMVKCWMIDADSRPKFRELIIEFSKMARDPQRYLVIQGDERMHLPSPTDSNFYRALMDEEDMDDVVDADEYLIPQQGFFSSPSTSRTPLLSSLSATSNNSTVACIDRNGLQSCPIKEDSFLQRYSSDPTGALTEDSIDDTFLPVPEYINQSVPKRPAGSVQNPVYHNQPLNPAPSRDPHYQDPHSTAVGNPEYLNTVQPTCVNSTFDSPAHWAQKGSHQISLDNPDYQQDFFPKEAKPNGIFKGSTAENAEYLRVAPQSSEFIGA
# [5] = target: T5, EGFR del (PC9) (Homo sapiens, UniProt P00533, DEL746-750); assay: pEGFR Y1068 ELISA assay, PC9 cells; details: inhibition of phosphorylation of EGFR at Tyr1068; PC9 NSCLC cells; 2 hr compound incubation
# T5 construct: detects endogenous levels of phospho-EGF Receptor (Tyr1068) protein; host or cells: PC9
# T5 sequence (P00533 with tags, fused parts or gaps DEL746-750): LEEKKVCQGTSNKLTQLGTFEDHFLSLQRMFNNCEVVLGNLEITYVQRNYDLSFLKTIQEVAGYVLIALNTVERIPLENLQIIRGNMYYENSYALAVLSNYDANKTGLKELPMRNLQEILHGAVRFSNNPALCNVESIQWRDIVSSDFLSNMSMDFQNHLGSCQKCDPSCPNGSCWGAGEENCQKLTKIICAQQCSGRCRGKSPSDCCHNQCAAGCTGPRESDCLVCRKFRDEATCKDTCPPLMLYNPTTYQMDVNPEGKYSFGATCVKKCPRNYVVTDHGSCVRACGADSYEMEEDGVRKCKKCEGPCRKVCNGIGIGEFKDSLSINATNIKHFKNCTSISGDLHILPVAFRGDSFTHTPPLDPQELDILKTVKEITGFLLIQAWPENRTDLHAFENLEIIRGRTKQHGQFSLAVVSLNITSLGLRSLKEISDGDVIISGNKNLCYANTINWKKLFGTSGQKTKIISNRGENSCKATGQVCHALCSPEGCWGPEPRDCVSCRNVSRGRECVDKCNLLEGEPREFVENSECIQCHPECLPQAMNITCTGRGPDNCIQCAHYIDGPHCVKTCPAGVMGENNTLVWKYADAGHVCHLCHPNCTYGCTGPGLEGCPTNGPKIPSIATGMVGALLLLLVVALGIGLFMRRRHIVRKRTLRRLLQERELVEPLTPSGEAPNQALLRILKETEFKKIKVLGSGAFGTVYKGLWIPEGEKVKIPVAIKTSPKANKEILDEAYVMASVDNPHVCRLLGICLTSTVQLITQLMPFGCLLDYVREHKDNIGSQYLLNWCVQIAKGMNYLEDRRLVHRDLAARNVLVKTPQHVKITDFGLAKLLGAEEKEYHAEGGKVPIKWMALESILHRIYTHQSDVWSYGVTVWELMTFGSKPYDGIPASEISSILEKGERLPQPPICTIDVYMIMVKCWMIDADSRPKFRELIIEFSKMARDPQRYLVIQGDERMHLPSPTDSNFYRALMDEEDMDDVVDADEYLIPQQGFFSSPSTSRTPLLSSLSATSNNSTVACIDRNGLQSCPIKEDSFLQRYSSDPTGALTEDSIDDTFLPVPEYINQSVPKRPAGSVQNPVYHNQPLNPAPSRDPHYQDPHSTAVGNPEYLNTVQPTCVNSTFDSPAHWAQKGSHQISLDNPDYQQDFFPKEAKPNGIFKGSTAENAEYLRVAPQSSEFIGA
# Experimental: as §1, §2
# [6] = inhibition of phosphorylation of EGFR at Tyr1068, NCI-H3255 NSCLC cells, 2 hr compound incubation
# T1 sequence (P00533 25-1210 L858R): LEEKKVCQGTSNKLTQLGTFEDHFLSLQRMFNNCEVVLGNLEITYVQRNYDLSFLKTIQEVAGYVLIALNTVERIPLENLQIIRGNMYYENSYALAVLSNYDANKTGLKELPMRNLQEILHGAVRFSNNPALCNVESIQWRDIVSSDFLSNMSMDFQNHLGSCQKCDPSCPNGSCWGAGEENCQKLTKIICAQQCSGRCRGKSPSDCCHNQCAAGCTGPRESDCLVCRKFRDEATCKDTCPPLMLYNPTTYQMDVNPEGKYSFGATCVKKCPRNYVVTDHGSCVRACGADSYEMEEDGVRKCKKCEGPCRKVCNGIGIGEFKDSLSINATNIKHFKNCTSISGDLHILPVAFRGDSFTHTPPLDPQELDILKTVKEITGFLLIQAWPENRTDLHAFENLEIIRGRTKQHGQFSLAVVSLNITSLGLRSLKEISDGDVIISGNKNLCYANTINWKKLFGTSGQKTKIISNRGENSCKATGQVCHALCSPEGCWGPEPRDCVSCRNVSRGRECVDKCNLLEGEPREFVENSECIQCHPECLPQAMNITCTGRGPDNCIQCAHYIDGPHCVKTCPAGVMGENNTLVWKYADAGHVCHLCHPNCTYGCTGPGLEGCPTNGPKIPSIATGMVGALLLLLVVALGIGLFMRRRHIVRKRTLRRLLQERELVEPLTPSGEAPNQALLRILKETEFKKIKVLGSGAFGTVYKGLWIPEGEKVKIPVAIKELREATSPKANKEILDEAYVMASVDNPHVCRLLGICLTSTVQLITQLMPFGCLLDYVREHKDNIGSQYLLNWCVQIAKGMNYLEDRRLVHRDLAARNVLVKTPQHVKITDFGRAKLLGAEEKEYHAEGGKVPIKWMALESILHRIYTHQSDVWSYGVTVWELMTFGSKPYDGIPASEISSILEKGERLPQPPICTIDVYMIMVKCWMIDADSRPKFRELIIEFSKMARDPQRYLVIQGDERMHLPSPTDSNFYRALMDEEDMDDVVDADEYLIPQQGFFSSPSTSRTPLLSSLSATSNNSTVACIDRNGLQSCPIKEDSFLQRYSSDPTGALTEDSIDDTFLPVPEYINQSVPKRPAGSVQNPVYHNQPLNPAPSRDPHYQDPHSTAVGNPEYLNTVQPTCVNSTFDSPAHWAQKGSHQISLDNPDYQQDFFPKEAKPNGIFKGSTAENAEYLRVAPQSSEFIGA
Structure (SMILES),IC50 [1],IC50 [2],IC50 [3],IC50 [4],IC50 [5],"IC50 [1, 6]"
"C=CC(=O)N[C@@H]1CN(c2nc(Nc3cnn(C)c3)c3ncn(C(C)C)c3n2)C[C@@H]1OC (single isomer, unassigned) [Example 50, N-((cis*)-1-(9-isopropyl-6((1-methyl-1H-pyrazol-4-yl)amino)-9H-purin-2-yl)-4-methoxypyrrolidin-3-yl)acrylamide]",3 nM,34 nM,26 nM,587 nM,8 nM,–
"C=CC(=O)N[C@@H]1CN(c2nc(Nc3cnn(C)c3)c3ncn(C(C)(C)C)c3n2)CC1F (stereo in doubt) [Example 49, N-((3R,4S)-1-(9-(tert-butyl)-6-((1-methyl-1H-pyrazol-4-yl)amino)-9H-purin-2-yl)-4-fluoropyrrolidin-3-yl)acrylamide]",3 nM,2 nM,21 nM,787 nM,8 nM,–
"C=CC(=O)N[C@H]1CCN(c2nc(Nc3ccc(N4CCN(C)CC4)cc3)c3ncn(C(C)C)c3n2)C1 [Example 1, (S)-N-(1-(9-isopropyl-6-((4-(4-methylpiperazin-1-yl)phenyl)amino)-9H-purin-2-yl)pyrrolidin-3-yl)acrylamide]",19 nM,18 nM,19 nM,277 nM,22 nM,–
"C=CC(=O)N[C@H]1CCN(c2nc(Nc3cnn(C)c3)c3ncn(C(C)C)c3n2)C1 [Example 4, (S)-N-(1-(9-isopropyl-6-((1-methyl-1H-pyrazol-4-yl)amino)-9H-purin-2-yl)pyrrolidin-3-yl)acrylamide]",59 nM,–,52 nM,652 nM,52 nM,–
"C=CC(=O)NC1(C)CN(c2nc(Nc3cnn(C)c3)c3ncn(C(C)C)c3n2)C1 [Example 13, N-(1-(9-isopropyl-6((1-methyl-1H-pyrazol-4-yl)amino)-9H-purin-2-yl)-3-methylazetidin-3-yl)acrylamide]",80 nM,25 nM,40 nM,2440 nM,40 nM,–
"C=CC(=O)N(C)[C@H]1C[C@H](Oc2nc(Nc3ccc(N4CCN(C)CC4)cc3)c3ncn(C(C)C)c3n2)C1 [Example 29, N-((trans)-3-((9-isopropyl-6-((4-(4-methylpiperazin-1-yl)phenyl)amino)-9H-purin-2-yl)oxy)cyclobutyl)-N-methylacrylamide]",35 nM,61 nM,35 nM,698 nM,40 nM,–
"C=CC(=O)NC1(C)CN(c2nc(Nc3cnn(C4CCN(C)CC4)c3)c3ncn(C(C)C)c3n2)C1 [Example 39, N-(1-(9-isopropyl-6-((1-(1-methylpiperidin-4-yl)-1H-pyrazol-4-yl)amino)-9H-purin-2-yl)-3-methylazetidin-3-yl)acrylamide]",–,10 nM,66 nM,2850 nM,20 nM,–
"C=CC(=O)N[C@H]1CCN(c2nc(Nc3cnn(C4CCN(C)CC4)c3)c3ncn(C(C)C)c3n2)C1 [Example 41, (S)-N-(1-(9-isopropyl-6-((1-(1-methylpiperidin-4-yl)-1H-pyrazol-4-yl)amino)-9H -purin-2-yl)pyrrolidin-3-yl)acrylamide]",9 nM,3 nM,64 nM,3040 nM,38 nM,–
"C=CC(=O)N[C@H]1CCN(c2nc(Nc3cnn(C4CCN(C)C4)c3)c3ncn(C(C)C)c3n2)C1 (stereo partly drawn) [Example 45, N-((3S)-1-(9-isopropyl-6-((1-(1-methylpyrrolidin-3-yl)-1H-pyrazol-4-yl)amino)-9H -purin-2-yl)pyrrolidin-3-yl)acrylamide]",–,3 nM,26 nM,1910 nM,7 nM,–
"C=CC(=O)N[C@H]1CCN(c2nc(Nc3ccc(N4CCN(C)CC4)cc3)c3ncn(CCO)c3n2)C1 [Example 46, (S)-N-(1-(9-(2-hydroxyethyl)-6-((4-(4-methylpiperazin-1-yl)phenyl)amino)-9H -purin-2-yl)pyrrolidin-3-yl)acrylamide]",–,–,387 nM,4190 nM,31 nM,7 nM
"C=CC(=O)N1CCC[C@@H](Oc2nc(Nc3cnn(C)c3)c3ncn(C(C)C)c3n2)C1 [Example 57, (R)-1-(3((9-isopropyl-6-((1-methyl-1H-pyrazol-4-yl)amino)-9H-purin-2-yl)oxy)piperidin-1-yl)prop-2-en-1-one]",–,44 nM,89 nM,3040 nM,–,–
"C=CC(=O)N[C@@H]1CN(c2nc(Nc3cn(C)nc3C)c3ncn(C(C)C)c3n2)C[C@H]1F [Example 61, N-((3R,4R)-1-(6-((1,3-dimethyl-1H-pyrazol-4-yl)amino)-9-isopropyl-9H-purin-2-yl) -4-fluoropyrrolidin-3-yl)acrylamide]",–,2130 nM,6140 nM,≥ 10000 nM,6650 nM,–
"C=CC(=O)N[C@@H]1CN(c2nc(Nc3cnn(C)c3)c3ncn(C(C)C)c3n2)C[C@H]1OC [Example 63, N-((3R,4R)-1-(9-isopropyl-6-((1-methyl-1H-pyrazol-4-yl)amino)-9H-purin-2-yl)-4-methoxypyrrolidin-3-yl)acrylamide]",–,5 nM,32 nM,551 nM,14 nM,–
"C=CC(=O)N[C@@H]1CN(c2nc(Nc3cn(C)nc3C)c3ncn(CC)c3n2)C[C@H]1F [Example 76, N-((3R,4R)-1-(6-((1,3-dimethyl-1H-pyrazol-4-yl)amino)-9-ethyl-9H-purin-2-yl)-4-fluoropyrrolidin-3-yl)acrylamide]",–,2 nM,30 nM,394 nM,–,–
"C=CC(=O)N[C@@H]1CN(c2nc(Nc3cn(C4CCN(C)C4)nc3C)c3ncn(CC)c3n2)C[C@H]1F (stereo partly drawn) [Example 80, N-((3R,4R)-1-(9-ethyl-6-((3-methyl-1-(1-methylpyrrolidin-3-yl)-1H-pyrazol-4-yl)amino)-9H-purin-2-yl)-4-fluoropyrrolidin-3-yl)acrylamide]",–,10 nM,22 nM,425 nM,–,–

# These reach a lower IC50 [3]. Values come first.
IC50 [1],IC50 [2],IC50 [3],IC50 [4],IC50 [5],"IC50 [1, 6]",Structure (SMILES)
–,18 nM,14 nM,181 nM,8 nM,8 nM,"C=CC(=O)N1C[C@@H]2CN(c3nc(Nc4ccc(N5CCN(C)CC5)cc4)c4ncn(C(C)C)c4n3)C[C@@H]2C1 [Example 21, 1-((cis)-5-(9-isopropyl-6-((4-(4-methylpiperazin-1-yl)phenyl)amino)-9H-purin-2-yl)hexahydropyrrolo[3,4-c]pyrrol-2(1H)-yl)prop-2-en-1-one]"
2 nM,3 nM,9 nM,273 nM,3 nM,–,"C=CC(=O)N[C@@H]1CN(c2nc(Nc3cn(C4CCN(C)C4)nc3C)c3ncn(C(C)C)c3n2)C[C@H]1F (stereo partly drawn) [Example 55, N-((3R,4R)-4-fluoro-1-(9-isopropyl-6-((3-methyl-1-(1-methylpyrrolidin-3-yl)-1H -pyrazol-4-yl)amino)-9H-purin-2-yl)pyrrolidin-3-yl)acrylamide]"
1 nM,–,6 nM,–,3 nM,–,"C=CC(=O)N[C@@H]1CN(c2nc(Nc3ccc(N4CCN(C)CC4)cc3)c3ncn(C(C)C)c3n2)C[C@H]1OC [Example 62, N-((3R,4R)-1-(9-isopropyl-6-((4-(4-methylpiperazin-1-yl)phenyl)amino)-9H-purin-2-yl)-4-methoxypyrrolidin-3-yl)acrylamide]"
–,9 nM,14 nM,1260 nM,11 nM,–,"C=CC(=O)N[C@@H]1CN(c2nc(Nc3cn(C4CCN(C)C4)nc3C)c3ncn(C(C)C)c3n2)C[C@H]1F (stereo partly drawn) [Example 65, N-((3R,4R)-4-fluoro-1-(9-isopropyl-6-((3-methyl-1-(1-methylpyrrolidin-3-yl)-1H -pyrazol-4-yl)amino)-9H-purin-2-yl)pyrrolidin-3-yl)acrylamide]"
–,2 nM,5 nM,49 nM,–,–,"C=CC(=O)N[C@@H]1CN(c2nc(Nc3cnn(C)c3)c3ncn(C(C)C)c3n2)CC1(F)F [Example 74, (R)—N-(4,4-difluoro-1-(9-isopropyl-6-((1-methyl-1H-pyrazol-4-yl)amino)-9H-purin-2-yl)pyrrolidin-3-yl)acrylamide]"
1 nM,2 nM,11 nM,64 nM,–,–,"C=CC(=O)N[C@@H]1CN(c2nc(Nc3cn(C4CCN(C)C4)nc3OC)c3ncn(CC)c3n2)C[C@H]1F (stereo partly drawn) [Example 75, N-((3R,4R)-1-(9-ethyl-6-((3-methoxy-1-(1-methylpyrrolidin-3-yl)-1H-pyrazol-4-yl)amino)-9H-purin-2-yl)-4-fluoropyrrolidin-3-yl)acrylamide]"
3 nM,1 nM,6 nM,100 nM,3 nM,–,"C=CC(=O)N[C@@H]1CN(c2nc(Nc3cn(C4CCN(C)C4)nc3OC)c3ncn(C)c3n2)C[C@H]1F (stereo partly drawn) [Example 79, N-((3R,4R)-4-fluoro-1-(6-((3-methoxy-1-(1-methylpyrrolidin-3-yl)-1H-pyrazol-4-yl)amino)-9-methyl-9H-purin-2-yl)pyrrolidin-3-yl)acrylamide]"
